Measurements as given in article PMC13077603, “Fluorine‐18‐Labeled Nucleotide Analogs Targeting Ecto‐5'‐Nucleotidase (CD73) for Positron Emission Tomography Imaging of Solid Tumors” (Angewandte Chemie (International Ed. in English), 2026).

Molecular target: T1, CD73 in human breast cancer samples (Homo sapiens, UniProt P21589)
T1 construct: cryosections of breast tumor samples as well as sentinel lymph node samples were investigated; from tissue; host or cells: primary breast tumors and sentinel lymph nodes of two patients, 6 µm cryosections
T1 sequence (P21589 27-574): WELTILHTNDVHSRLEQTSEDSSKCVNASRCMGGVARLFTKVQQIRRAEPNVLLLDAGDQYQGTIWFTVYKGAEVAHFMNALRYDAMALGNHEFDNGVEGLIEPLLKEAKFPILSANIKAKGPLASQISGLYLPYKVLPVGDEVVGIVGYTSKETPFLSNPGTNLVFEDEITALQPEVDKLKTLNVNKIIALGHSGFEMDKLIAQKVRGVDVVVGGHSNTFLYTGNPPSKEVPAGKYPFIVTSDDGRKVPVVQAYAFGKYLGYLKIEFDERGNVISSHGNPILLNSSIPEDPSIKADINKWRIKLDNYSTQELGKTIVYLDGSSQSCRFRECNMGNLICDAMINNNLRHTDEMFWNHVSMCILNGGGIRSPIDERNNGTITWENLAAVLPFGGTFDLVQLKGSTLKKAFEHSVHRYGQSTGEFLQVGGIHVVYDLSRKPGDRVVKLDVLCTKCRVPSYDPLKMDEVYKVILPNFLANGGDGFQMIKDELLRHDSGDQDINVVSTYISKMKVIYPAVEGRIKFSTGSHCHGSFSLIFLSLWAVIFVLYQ
Assay: Autoradiography on human breast tumor and sentinel lymph node cryosections
Assay type: binding
Conditions: autoradiography, cryosections
Protocol: To test specific radiotracer binding to its target, we performed in situ autoradiography. [^18F]2 was applied onto cryosections of neighboring slides of tumor tissues from primary breast tumors from patient X (Figure 4A) and patient Y (Figure 4B), used for immunohistochemistry and AMPase activity determination. Sentinel LN from patient Y was incubated with [^18F]1 (Figure 4C).
FIGURE 4 Autoradiographic imaging of ^18F‐labeled CD73 tracer binding to tissue samples of breast tumors and sentinel lymph nodes. Primary breast tumor (A, B) and LN cryosections (C) were incubated with [^18F]2 or [^18F]1 in the absence (control) and in the presence of an unlabeled CD73 inhibitor, AMPCP (13) or JMS04‐14 (14), as indicated. The samples were processed for autoradiographic analysis, as described in the materials and methods section. The white dotted lines outline the tissue boundaries. (D). Structures of CD73 inhibitors applied as blockers in this study.
For the assessment of ^18F-labeled CD73 tracer binding to human tissues, cryosections of breast tumor samples as well as sentinel lymph node samples were investigated. Cryosections were thawed and pre-incubated for 15 min at room temperature in 2-[4-(2-hydroxyethyl)piperazin-1-yl]ethanesulfonic acid buffer (HEPES). […] Blocking compounds were prepared according to the molar activity of the radiolabeled tracers [^18F]MRS-4648 and [^18F]PSB-19427 aiming at a 1000-fold excess of the blocking agent. For each tissue sample, neighboring sections were incubated for 20 min at room temperature with a mixture of 50µL of the radiotracer and 50µL of the classical CD73 inhibitor AMPCP (25 nmol, in PBS), or JMS0414 (61 nmol, in HEPES), or HEPES buffer respectively. After incubation, slides were washed three times with PBS and Aqua bidest, mounted on a slide holder for the image acquisition, and covered with protection and scintillation foils. Digital autoradiography measurement of each slide was performed for 60 minutes (Micro Imager, Biospace, France). Acquired data were corrected for radioactive decay in reference to the start of the acquisition as well as the start of the incubation.

Tracer binding to CD73 in human breast cancer samples	Structure (SMILES)
selectively bind	CCCN(Cc1ccc(-c2cn(CC[18F])nn2)cc1)c1nc(Cl)nc2c1ncn2[C@@H]1O[C@H](COP(=O)(O)CP(=O)(O)O)[C@@H](O)[C@H]1O [[^18F]1, [^18F]-[((2R,3S,4R,5R)-5-{2-chloro-6-[(4-{1-[2-(fluoro)ethyl]-1H-1,2,3-triazol-4-yl}benzyl)-(propyl)amino]-9H-purin-9-yl}-3,4-dihydroxytetrahydrofuran-2-yl)methoxy]methylene-bisphosphonic acid]
selectively bind	Cn1c(=O)n([C@@H]2O[C@H](COP(=O)(O)CP(=O)(O)O)[C@@H](O)[C@H]2O)cc/c1=N/OCc1ccc(-c2cn(CC[18F])nn2)cc1 [[^18F]2, [^18F]-{[(2R,3S,4R,5R)-5-(4-{[(4-{1-[2-(fluoro)ethyl]-1H-1,2,3-triazol-4-yl}benzyl)-oxy]imino}-3-methyl-2-oxo-3,4-dihydropyrimidin-1(2H)-yl)-3,4-dihydroxytetra-hydrofuran-2-yl]methoxy}methylenebisphosphonic acid]
